Results published in patent US20230096766A1, “AMINO ACID HAVING FUNCTIONAL GROUP CAPABLE OF INTERMOLECULAR HYDROGEN BONDING, PEPTIDE COMPOUND CONTAINING SAME AND METHOD FOR PRODUCTION THEREOF” (Chugai Seiyaku Kabushiki Kaisha, priority 2018, published 2023).
Where a SMILES comes first, the peptide text is derived from it. Bridges are numbered along the chain shown (N, C = ends). [ ]: non-standard residue; d: D form. The star is where a group is joined. hPhe(3-OMe,4-CONHMe) = CNC(=O)c1ccc(CC[C@H](N)C(=O)O)cc1OC; Phe(4-COOH) = N[C@@H](Cc1ccc(C(=O)O)cc1)C(=O)O; NMePhe(3-Cl) = CN[C@@H](Cc1cccc(Cl)c1)C(=O)O; NMehPhe = CN[C@@H](CCc1ccccc1)C(=O)O; NMeF = CN[C@@H](Cc1ccccc1)C(=O)O; NMeI = CC[C@H](C)[C@H](NC)C(=O)O; Butyl(3-Me,3-OH) = CC(C)(O)CC*; NMeD = CN[C@@H](CC(=O)O)C(=O)O; NMeL = CN[C@@H](CC(C)C)C(=O)O; Propyl(2R-OH) = C[C@@H](O)C*; NMeV = CN[C@H](C(=O)O)C(C)C; NMeAbu = CC[C@H](NC)C(=O)O; NMeA = CN[C@@H](C)C(=O)O; Piperidide = C1CCN(*)CC1; CH2CONHMe = CNC(=O)C*; NBuGly = CCCCNCC(=O)O; NPrGly = CCCNCC(=O)O; N(OH)Me = CN(O)*; Sar = CNCC(=O)O; tBu = CC(C)(C)*

Assay: in vitro
Conditions: human, Caco-2, Caco-2 (cm/sec)

Point of comparison: `CC(C)C[C@H]1C(=O)N[C@@H]([C@@H](C)O)C(=O)N(C)CC(=O)N(C)[C@@H](Cc2cccc(Cl)c2)C(=O)N(C)[C@@H](CC(C)C)C(=O)N[C@@H](COC(C)(C)C)C(=O)N(C)[C@@H](CC(C)C)C(=O)N[C@H](C(=O)N2CCCCC2)CC(=O)N(C)CC(=O)N(C)[C@@H](CCc2ccccc2)C(=O)N[C@@H](COCCC(C)(C)O)C(=O)N1C` [AP57] ([Sar][NMehPhe]S(Butyl(3-Me,3-OH))[NMeL]T[Sar][NMePhe(3-Cl)][NMeL]S(tBu)[NMeL]D-Piperidide; lactam N-11), Papp 0.83 ×10⁻⁶ cm/s. Against it:
- CCCCN1CC(=O)N[C@@H](CC(C)C)C(=O)N2CCC[C@H]2C(=O)N(C)[C@@H](C(C)C)C(=O)N[C@@H](CCc2ccc(C(=O)NC)c(OC)c2)C(=O)N(C)[C@@H](Cc2ccccc2)C(=O)N(C)[C@@H](CC(C)C)C(=O)N[C@@H](CC(C)C)C(=O)N(C)[C@@H]([C@@H](C)CC)C(=O)N[C@H](C(=O)N2CCCCC2)CC(=O)N[C@H](C(C)C)C(=O)N[C@@H]([C@@H](C)O)C1=O [AP265] ([dV]T[NBuGly]LP[NMeV][hPhe(3-OMe,4-CONHMe)][NMeF][NMeL]L[NMeI]D-Piperidide; lactam N-12) — 1.8-fold lower, 0.46 ×10⁻⁶ cm/s
- CCCCN1CC(=O)N(C)[C@@H](Cc2cccc(Cl)c2)C(=O)N(C)[C@@H](CC(C)C)C(=O)N[C@@H](COC[C@@H](C)O)C(=O)N(C)[C@@H](CC(C)C)C(=O)N[C@H](C(=O)N2CCCCC2)CC(=O)N(C)CC(=O)N(C)[C@@H](Cc2ccccc2)C(=O)N[C@@H]([C@@H](C)CC)C(=O)N(C)[C@@H](CC(C)C)C(=O)N[C@@H]([C@@H](C)O)C1=O [AP78] ([Sar][NMeF]I[NMeL]T[NBuGly][NMePhe(3-Cl)][NMeL]S(Propyl(2R-OH))[NMeL]D-Piperidide; lactam N-11) — 3.5-fold lower, 0.24 ×10⁻⁶ cm/s
- CC[C@H](C)[C@@H]1NC(=O)[C@H](CC(C)C)N(C)C(=O)[C@@H](C)NC(=O)C[C@@H](C(=O)N2CCCCC2)NC(=O)[C@H](C(C)C)N(C)C(=O)[C@H](CC(C)C)N(C)C(=O)[C@H](COC(C)(C)C)NC(=O)[C@H](CC(C)C)N(C)C(=O)CN(C)C(=O)[C@H](Cc2c[nH]c3ccccc23)NC(=O)[C@H](CC(C)C)N(C)C1=O [pd108] ([dA][NMeL]I[NMeL]W[Sar][NMeL]S(tBu)[NMeL][NMeV]D-Piperidide; lactam N-11) — within 1.5-fold, 0.87 ×10⁻⁶ cm/s
- CCCCN1CC(=O)N(C)[C@@H](CC(C)C)C(=O)N(C)[C@@H](CC(C)C)C(=O)N[C@@H](COC(C)(C)C)C(=O)N(C)[C@@H](CC(C)C)C(=O)N[C@H](C(=O)N2CCCCC2)CC(=O)N(C)CC(=O)N(C)[C@@H](Cc2cccc(Cl)c2)C(=O)N[C@@H](Cc2ccc(C(=O)N(C)O)cc2)C(=O)N(C)[C@@H](CC(C)C)C(=O)N[C@@H]([C@@H](C)O)C1=O [AP254] ([Sar][NMePhe(3-Cl)][Phe(4-COOH)](N(OH)Me)[NMeL]T[NBuGly][NMeL][NMeL]S(tBu)[NMeL]D-Piperidide; lactam N-11) — 5.5-fold lower, 0.15 ×10⁻⁶ cm/s
- CC(C)C[C@@H]1NC(=O)[C@H](Cc2ccccc2)N(C)C(=O)[C@H](COC(C)(C)C)NC(=O)[C@H](Cc2ccccc2)N(C)C(=O)[C@H](C)N(C)C(=O)[C@H](CC(C)C)N(C)C(=O)[C@@H](C)NC(=O)C[C@@H](C(=O)N2CCCCC2)N(C)C(=O)[C@H](Cc2ccccc2)N(C)C(=O)[C@H]([C@@H](C)O)NC(=O)[C@H](C(C)C)N(C)C1=O [pd208] ([dA][NMeL][NMeA][NMeF]S(tBu)[NMeF]L[NMeV]T[NMeF][NMeD]-Piperidide; lactam N-11) — 2-fold higher, 1.7 ×10⁻⁶ cm/s
- CC[C@H](C)[C@@H]1NC(=O)[C@H](Cc2ccccc2)N(C)C(=O)[C@H](CCc2ccc(C(=O)NC)c(OC)c2)NC(=O)[C@H](CC(C)C)N(C)C(=O)[C@H](C(C)C)NC(=O)[C@H](CC(C)C)N(C)C(=O)[C@H](CC(C)C)N(C)C(=O)CNC(=O)[C@H](CC)N(C)C(=O)C[C@@H](C(=O)N2CCCCC2)NC(=O)[C@H]([C@@H](C)O)NC(=O)[C@H](CC(C)C)N(C)C(=O)[C@H](CC(C)C)N(C)C1=O [AP266] ([NMeAbu]G[NMeL][NMeL]V[NMeL][hPhe(3-OMe,4-CONHMe)][NMeF]I[NMeL][NMeL]TD-Piperidide; lactam N-13) — lower, < 0.0895 ×10⁻⁶ cm/s
- CC(C)C[C@@H]1NC(=O)[C@H](Cc2ccccc2)N(C)C(=O)[C@@H](C(C)C)NC(=O)C[C@@H](C(=O)N2CCCCC2)NC(=O)[C@H](Cc2ccccc2)N(C)C(=O)[C@H](Cc2ccccc2)N(C)C(=O)[C@H](C(C)C)NC(=O)[C@H](CC(C)C)N(C)C(=O)CN(C)C(=O)[C@H]([C@@H](C)O)NC(=O)[C@H](CC(C)C)N(C)C1=O [pd221] ([dV][NMeF]L[NMeL]T[Sar][NMeL]V[NMeF][NMeF]D-Piperidide; lactam N-11) — within 1.5-fold, 1.1 ×10⁻⁶ cm/s
- CC[C@H]1C(=O)N[C@@H](CC(C)C)C(=O)N(C)[C@@H](CC(C)C)C(=O)N(C)[C@@H](Cc2ccccc2)C(=O)N[C@@H](Cc2ccc(O)cc2)C(=O)N(C)[C@@H](CC(C)C)C(=O)N(C)[C@@H](CC(C)C)C(=O)N[C@@H]([C@@H](C)O)C(=O)N(C)CC(=O)N(C)[C@@H](CC(C)C)C(=O)N[C@H](C(=O)N2CCCCC2)CC(=O)N1C [Compound F05] ([NMeAbu]L[NMeL][NMeF]Y[NMeL][NMeL]T[Sar][NMeL]D-Piperidide; lactam N-11) — 2.2-fold lower, 0.38 ×10⁻⁶ cm/s

Same assay, conditions: human, Caco-2, Caco-2 (cm/sec) Papp

In the case of `CC[C@H](C)[C@@H]1NC(=O)[C@H](Cc2ccccc2)N(C)C(=O)[C@H]([C@@H](C)O)NC(=O)[C@@H](C)NC(=O)C[C@@H](C(=O)N(C)[C@@H](Cc2ccccc2)C(=O)N(C)[C@@H](Cc2ccccc2)C(=O)N[C@@H](C)C(=O)N2CCCCC2)NC(=O)[C@H](CC(C)C)N(C)C(=O)[C@H](CC(C)C)N(C)C(=O)[C@H](Cc2ccccc2)N(C)C(=O)[C@H](CC(C)C)N(C)C(=O)[C@H](C)N(C)C1=O` [pd242] ([dA]T[NMeF]I[NMeA][NMeL][NMeF][NMeL][NMeL]D[NMeF][NMeF]A-Piperidide; lactam N-10), the Papp was 0.058 ×10⁻⁶ cm/s.

Same assay, conditions: human, Caco-2, Caco-2 (membrane permeability)

Point of comparison: `CCCCN1CC(=O)N(C)[C@@H](Cc2ccccc2)C(=O)N[C@@H](CCC(=O)NC)C(=O)N(C)[C@@H](CC(C)C)C(=O)N[C@@H]([C@@H](C)O)C(=O)N(CCCC)CC(=O)N(C)[C@@H](Cc2ccccc2)C(=O)N(C)[C@@H](CC(C)C)C(=O)N[C@@H](CC(C)C)C(=O)N(C)[C@@H]([C@@H](C)CC)C(=O)N[C@H](C(=O)N2CCCCC2)CC1=O` [Compound J05] ([NBuGly][NMeF]E(NHMe)[NMeL]T[NBuGly][NMeF][NMeL]L[NMeI]D-Piperidide; lactam N-11), Papp 0.052 ×10⁻⁶ cm/s. Against it:
- CCCCN1CC(=O)N(C)[C@@H](Cc2ccccc2)C(=O)N[C@@H]([C@@H](C)CC)C(=O)N(C)[C@@H](CC(C)C)C(=O)N[C@@H]([C@@H](C)O)C(=O)N(CCCC)CC(=O)N(C)[C@@H](Cc2ccccc2)C(=O)N(C)[C@@H](CC(C)C)C(=O)N[C@@H](CCC(=O)NC)C(=O)N(C)[C@@H]([C@@H](C)CC)C(=O)N[C@H](C(=O)N2CCCCC2)CC1=O [Compound J06] ([NBuGly][NMeF]I[NMeL]T[NBuGly][NMeF][NMeL]E(NHMe)[NMeI]D-Piperidide; lactam N-11) — 6.1-fold lower, 0.0085 ×10⁻⁶ cm/s
- CCCCN1CC(=O)N(C)[C@@H](Cc2ccccc2)C(=O)N[C@@H](COCC(=O)NC)C(=O)N(C)[C@@H](CC(C)C)C(=O)N[C@@H]([C@@H](C)O)C(=O)N(CCC)CC(=O)N(C)[C@@H](Cc2ccccc2)C(=O)N(C)[C@@H](CC(C)C)C(=O)N[C@@H](CC(C)C)C(=O)N(C)[C@@H](CC(C)C)C(=O)N[C@H](C(=O)N2CCCCC2)CC1=O [Compound I05] ([NBuGly][NMeF]S(CH2CONHMe)[NMeL]T[NPrGly][NMeF][NMeL]L[NMeL]D-Piperidide; lactam N-11) — 15-fold higher, 0.8 ×10⁻⁶ cm/s
